Test results from US20070208040A1, “A2A ADENOSINE RECEPTOR ANTAGONISTS” (priority 2006, published 2007).

Each compound was assayed against A2A adenosine receptor (UniProt P29274) (assay: A2A radioligand binding assay (displacement of 3H-MSX-2)). Conditions: displacement of 2 nM 3H-MSX-2 from 15 ug A2A membrane, 23° C., 2 hours.
Set-up: species or system human
From the text: A tritiated adenosine A2A antagonist, 3-(3-hydroxypropyl)-7-methyl-8-(m-methoxystyryl)-1-propargylxanthine, (3H-MSX-2, specific activity: 80 Ci/mmol), was purchased from American Radiolabeled Chemicals, Inc (St. Louis, Mo.). A tritiated adenosine A1 antagonist, 1,3-Dipropyl-8-cyclopentylxanthine ([^3H]DPCPX, specific activity: 120 Ci/mmol) was purchased from Perkin Elmer (Boston, Mass.). A tritiated adenosine A2a antagonist, 4-(2-[7-amino-2-(2-furyl)[1,2,4]triazolo[2,3-a][1,3,5]triazin-5-ylamino]ethyl)phenol ([^3H]ZM241385 specific activity: 27.4 Ci/mmol) was purchased from American Radiolabeled Chemicals, Inc (St. Louis, Mo.). Adenosine Deaminase (ADA) was purchased from Roche Molecular Biochemicals (Nutley, N.J.). GTP was purchased from Sigma. Concentrated stock solution (10 mM) of compounds was dissolved in dimethylsulfoxide (DMSO), stored at −20° C., and diluted in Tris-EDTA buffer (50 mM Tris and 1 mM EDTA, 10 mM MgCl2, pH 7.4) for use in experiments. The final content of dimethylsulfoxide in Tris-EDTA buffer during experiments was not more than 1%. Male Sprague Dawley rats, weighted 250-400 g, 8-10 weeks old, were purchased from Charles River Labs (Wilmington, Mass.).
HEK293 (Human Embryonic Kidney 293) cells stably expressing human A2A adenosine receptor or human A2B adenosine receptor were maintained in DMEM supplemented with 10% fetal bovine serum, 2 mM L-glutamine, 100 IU/ml penicillin, 50 μg/ml streptomycin and 2 μg/ml puromycin. CHO (Chinese Hamster Ovary) cells stably expressing human A1 adenosine receptor or human A3 adenosine receptor were maintained in F12K medium supplemented with 10% fetal bovine serum, 2 mM L-glutamine, 100 IU penicillin, 50 μg streptomycin and 8 μg/ml puromycin. PC12 (rat pheochromocytoma) cells were cultured in F12K medium supplemented with 10% horse serum and 2.5% fetal bovine serum, 2 mM L-glutamine, 100 IU/ml penicillin, and 50 μg/ml streptomycin. All cells were maintained at 37° C. in a humidified 5% CO2/95% air incubator and recultivated 2 times per week.
Cultured cells in 150 mm^2 dishes were washed once with PBS, detached by scrapping, collected with buffer A (10 mM HEPES, 10 mM EDTA, pH 7.4) containing protease inhibitor cocktail. Cells were then homogenized by a handheld homogenizer at a speed of 4.5 for 1 min. The homogenate was centrifuged by a Beckman ultracentrifuge at a speed of 29,000 × g for 15 min. The pellets were resuspended in buffer HE (10 mM HEPES, 1 mM EDTA, pH 7.4, with protease inhibitor cocktail), centrifuged again at 29,000 × g for 15 min. The crude membrane was resuspended using buffer HE, and protein concentration was measured by the method of Lowery with BSA as standard. Similar procedures were used for membrane preparation for fresh rat tissues. All experimental procedures were done at 4° C. Membranes were aliquot and kept at −80° C.
The binding assays utilized 15 ug of A2A membrane (human recombinant A2A membrane, rat striatal membrane, or PC 12 cell membrane) that had been treated with adenosine deaminase and 50 mM Tris-EDTA buffer (pH=7.4) followed by mixing 2 μL of serially diluted DMSO stock solution of the compounds of this invention at concentrations ranging from 10 μM to 0.1 nM or the control received 2 μL of DMSO alone, then the tritiated antagonist 3-(3-hydroxypropyl)-7-methyl-8-(m-methoxystyryl)-1-propargylxanthine (^3H-MSX-2) in Tris-EDTA buffer (50 mM Tris, 1 mM EDTA, 10 mM MgCl2, pH of 7.4) was added to achieve a final concentration of 2 nM. After incubation at 23° C. for 2 hours, the solutions were filtered using a membrane harvester with multiple washing of the membranes (3×). The filter plates were counted in scintillation cocktail affording the amount of displacement ^3H-MSX-2 by the competitive binding compositions of this invention. Radioligand binding data was analyzed using GraphPad Prism version 4.0 (San Diego, Calif.). […]
`CCn1c(=O)[nH]c2sc(-c3cnn(Cc4ccccc4)c3)c(C)c2c1=O` [XVIII, 3-ethyl-5-methyl-6-[1-benzylpyrazol-4-yl]-1,3-dihydrothiopheno[2,3-d]pyrimidine-2,4-dione] was tested, and the Ki was 752 nM.
`CCn1c(=O)c2c(C)c(-c3ccoc3)sc2n(C)c1=O` [XLVI, 3-ethyl-6-(3-furyl)-1,5-dimethyl-1,3-dihydrothiopheno[2,3-d]pyrimidine-2,4-dione] gave a Ki of 546 nM.
`CCn1c(=O)[nH]c2sc(-c3ccc[nH]3)c(C)c2c1=O` [XXVII, 3-ethyl-5-methyl-6-pyrrol-2-yl-1,3-dihydrothiopheno[2,3-d]pyrimidine-2,4-dione] was tested, and the Ki was 180 nM.
`Cc1c(-c2ncco2)sc2c1c(=O)n(CC(C)C)c(=O)n2C` [XL, 1,5-dimethyl-3-(2-methylpropyl)-6-(1,3-oxazol-2-yl)-1,3-dihydrothiopheno[2,3-d]pyrimidine-2,4-dione] showed a Ki of 347 nM.
In the case of `Cc1c(-c2cocn2)sc2c1c(=O)n(CC(C)C)c(=O)n2C` [XXIV, 1,5-dimethyl-3-(2-propylmethyl)-6-(1,3-oxazol-4-yl)-1,3-dihydrothiopheno[1,3-d]pyrimidine-2,4-dione], the Ki is reported as 165 nM.
For `CC[C@H]1COC(c2sc3[nH]c(=O)n(CC(C)C)c(=O)c3c2C)=N1` [LVI, 6-((4S)-4-ethyl(1,3-oxazolin-2-yl))-5-methyl-3-(2-methylpropyl)-1,3-dihydrothiopheno[2,3-d]pyrimidine-2,4-dione], the Ki was 58 nM.
In the case of `Cc1c(C2=NCCO2)sc2[nH]c(=O)n(CC(C)C)c(=O)c12` [XXVIII, 5-methyl-3-(2-methylpropyl)-6-(1,3-oxazolin-2-yl)-1,3-dihydrothiopheno[2,3-d]pyrimidine-2,4-dione], the Ki is reported as 137 nM.
For `Cc1c(C2=NC[C@@H](C)O2)sc2[nH]c(=O)n(CC(C)C)c(=O)c12` [LVII, 6-((5R)-5-methyl(1,3-oxazolin-2-yl))-5-methyl-3-(2-methylpropyl)-1,3-dihydrothiopheno[2,3-d]pyrimidine-2,4-dione], the Ki was 239 nM.
For `CCn1c(=O)[nH]c2sc(-c3ccco3)c(C)c2c1=O` [IV, 3-ethyl-6-(2-furyl)-5-methyl-1,3-dihydrothiopheno[2,3-d]pyrimidine-2,4-dione], the Ki was 105 nM.
`CCn1c(=O)[nH]c2sc(-c3sccc3C)c(C)c2c1=O` [XXXII, 3-ethyl-5-methyl-6-(3-methyl(2-thienyl))-1,3-dihydrothiopheno[2,3-d]pyrimidine-2,4-dione] was tested, and the Ki was 110 nM.
In the case of `CCn1c(=O)[nH]c2sc(-c3cccs3)c(C)c2c1=O` [III, 3-ethyl-5-methyl-6-(2-thienyl)-1,3-dihydrothiopheno[2,3-d]pyrimidine-2,4-dione], the Ki is reported as 97 nM.
Work on `CCn1c(=O)[nH]c2sc(-c3ccsc3)c(C)c2c1=O` [XII, 3-ethyl-5-methyl-6-(3-thienyl)-1,3-dihydrothiopheno[2,3-d]pyrimidine-2,4-dione] yielded a Ki of 559 nM.
In the case of `Cc1c(-c2ccco2)sc2[nH]c(=O)n(C)c(=O)c12` [XXXIV, 6-(2-furyl)-3,5-dimethyl-1,3-dihydrothiopheno[2,3-d]pyrimidine-2,4-dione], the Ki is reported as 110 nM.
Work on `Cc1c(C2=N[C@@H](C)CO2)sc2c1c(=O)n(CC(C)C)c(=O)n2C` [LIII, 6-((4S)-4-methyl(1,3-oxazolin-2-yl))-1,5-dimethyl-3-(2-methylpropyl)-1,3-dihydrothiopheno[2,3-d]pyrimidine-2,4-dione] yielded a Ki of 304 nM.
Work on `CC[C@H]1COC(c2sc3c(c2C)c(=O)n(CC(C)C)c(=O)n3C)=N1` [LVIII, 6-((4S)-4-ethyl(1,3-oxazolin-2-yl))-1,5-dimethyl-3-(2-methylpropyl)-1,3-dihydrothiopheno[2,3-d]pyrimidine-2,4-dione] yielded a Ki of 119 nM.
In the case of `C#CCn1c(=O)[nH]c2sc(C(=O)OCC)c(C)c2c1=O` [XXV, ethyl 5-methyl-2,4-dioxo-3-prop-2-ynyl-1,3-dihydrothiopheno[2,3-d]pyrimidine-6-carboxylate], the Ki is reported as 300 nM.
`Cc1c(C2=NC[C@@H](C)O2)sc2c1c(=O)n(CC(C)C)c(=O)n2C` [LIX, 6-((5R)-5-methyl(1,3-oxazolin-2-yl))-1,5-dimethyl-3-(2-methylpropyl)-1,3-dihydrothiopheno[2,3-d]pyrimidine-2,4-dione] was tested, and the Ki was 450 nM.
In the case of `Cc1c(-c2ccoc2)sc2[nH]c(=O)n(CC(C)C)c(=O)c12` [XXX, 6-(3-furyl)-5-methyl-3-(2-methylpropyl)-1,3-dihydrothiopheno[2,3-d]pyrimidine-2,4-dione], the Ki is reported as 158 nM.
`CCn1c(=O)c2c(C)c(-c3ccc[nH]3)sc2n(C)c1=O` [XLIX, 3-ethyl-1,5-dimethyl-6-pyrrol-2-yl-1,3-dihydrothiopheno[2,3-d]pyrimidine-2,4-dione] gave a Ki of 488 nM.
`Cc1csc2[nH]c(=O)n(CC(C)C)c(=O)c12` [XIX, 5-methyl-3-(2-methylpropyl)-1,3-dihydrothiopheno[2,3-d]pyrimidine-2,4-dione] gave a Ki of 780 nM.
`CCn1c(=O)[nH]c2sc(-c3cccnc3OC)c(C)c2c1=O` [LV, 3-ethyl-6-(2-methoxy(3-pyridyl))-5-methyl-1,3-dihydrothiopheno[2,3-d]pyrimidine-2,4-dione] gave a Ki of 529 nM.
For `CCn1c(=O)[nH]c2sc(C3=N[C@@H](C)CO3)c(C)c2c1=O` [XLIII, 6-((4S)-4-methyl(1,3-oxazolin-2-yl))-3-ethyl-5-methyl-1,3-dihydrothiopheno[2,3-d]pyrimidine-2,4-dione], the Ki was 93 nM.
With `CCn1c(=O)[nH]c2sc(-c3nccs3)c(C)c2c1=O` [XXXVII, 3-ethyl-5-methyl-6-(1,3-thiazol-2-yl)-1,3-dihydrothiopheno[2,3-d]pyrimidine-2,4-dione] the Ki was 167 nM.
Compound `Cc1c(-c2ccco2)sc2[nH]c(=O)n(CC(C)C)c(=O)c12` [Example I, 6-(2-furyl)-5-methyl-3-(2-methylpropyl)-1,3-dihydrothiopheno[2,3-d]pyrimidine-2,4-dione] has a Ki of 76 nM.
`CCn1c(=O)[nH]c2scc(C)c2c1=O` [X, 3-ethyl-5-methyl-1,3-dihydrothiopheno[2,3-d]pyrimidine-2,4-dione] gave a Ki of 397 nM.
`CCn1c(=O)[nH]c2sc(C(=O)N[C@H](C)CO)c(C)c2c1=O` [XLII, N—((1R)-2-hydroxy-isopropyl)(3-ethyl-5-methyl-2,4-dioxo(1,3-dihydrothiopheno[2,3-d]pyrimidin-6-yl))carboxamide] was tested, and the Ki was 769 nM.
`CCn1c(=O)c2c(C)c(-c3ccccn3)sc2n(C)c1=O` [L, 3-ethyl-1,5-dimethyl-6-(2-pyridyl)-1,3-dihydrothiopheno[2,3-d]pyrimidine-2,4-dione] gave a Ki of 485 nM.
For `CCn1c(=O)[nH]c2scc(-c3ccc(C)o3)c2c1=O` [XXI, 3-ethyl-5-(5-methyl(2-furyl))-1,3-dihydrothiopheno[2,3-d]pyrimidine-2,4-dione], the Ki was 230 nM.
With `CCn1c(=O)[nH]c2sc3c(c2c1=O)CCCC3` [XI, 3-ethyl-1,3,5,6,7,8-hexahydrobenzo[b]thiopheno[2,3-d]pyrimidine-2,4-dione] the Ki was 458 nM.
`Cc1c(-c2cocn2)sc2[nH]c(=O)n(CC(C)C)c(=O)c12` [XXIII, 5-methyl-3-(2-methylpropyl)-6-(1,3-oxazol-4-yl)-1,3-dihydrothiopheno[2,3-d]pyrimidine-2,4-dione] was tested, and the Ki was 96 nM.
`CCn1c(=O)c2c(-c3ccc(C)o3)csc2n(C)c1=O` [XXII, 3-ethyl-1-methyl-5-(5-methyl(2-furyl))-1,3-dihydrothiopheno[2,3-d]pyrimidine-2,4-dione] was tested, and the Ki was 896 nM.
